# Measured values as given in patent publication US11186589B2, “Cyanoindoline derivatives as NIK inhibitors” (Janssen Pharmaceutica NV, priority 2016, dated 2021).
# Like-named read-outs stand apart in the source and are kept apart here.
# Legend:
# [1] = target: NIK/MAP3K14 (Homo sapiens (Human), UniProt Q99558); assay: Inhibition of auto-phosphorylation of recombinant human NF-kappaB-inducing kinase (NIK/MAP3K14) activity (AlphaScreen); format: biochemical; settings: averaged values over all measurements on all batches, 25 microM ATP
# Sequence of NIK/MAP3K14 (Q99558 whole entry): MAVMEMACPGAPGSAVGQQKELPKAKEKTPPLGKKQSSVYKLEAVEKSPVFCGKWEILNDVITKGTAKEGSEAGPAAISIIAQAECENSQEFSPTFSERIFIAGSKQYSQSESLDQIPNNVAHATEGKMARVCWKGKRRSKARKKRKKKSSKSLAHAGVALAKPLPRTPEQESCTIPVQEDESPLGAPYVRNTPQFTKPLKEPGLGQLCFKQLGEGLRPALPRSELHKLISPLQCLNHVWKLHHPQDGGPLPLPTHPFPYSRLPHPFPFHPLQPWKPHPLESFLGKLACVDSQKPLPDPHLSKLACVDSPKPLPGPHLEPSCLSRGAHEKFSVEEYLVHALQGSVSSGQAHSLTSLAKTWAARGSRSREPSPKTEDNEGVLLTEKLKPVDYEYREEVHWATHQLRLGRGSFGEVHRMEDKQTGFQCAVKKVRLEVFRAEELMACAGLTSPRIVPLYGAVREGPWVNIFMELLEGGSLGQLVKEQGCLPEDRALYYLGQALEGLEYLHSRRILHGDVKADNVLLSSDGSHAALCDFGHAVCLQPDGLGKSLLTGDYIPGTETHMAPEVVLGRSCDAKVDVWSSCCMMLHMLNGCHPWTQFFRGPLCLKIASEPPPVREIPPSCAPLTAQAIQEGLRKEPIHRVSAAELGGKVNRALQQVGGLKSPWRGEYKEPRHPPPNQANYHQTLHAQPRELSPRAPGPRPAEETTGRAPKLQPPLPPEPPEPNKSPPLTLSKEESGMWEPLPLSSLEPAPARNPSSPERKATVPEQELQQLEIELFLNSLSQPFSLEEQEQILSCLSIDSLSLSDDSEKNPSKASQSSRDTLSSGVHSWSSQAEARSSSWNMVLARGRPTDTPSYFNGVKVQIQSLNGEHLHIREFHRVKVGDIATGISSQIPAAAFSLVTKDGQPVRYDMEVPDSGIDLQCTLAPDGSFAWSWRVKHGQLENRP
# Outline: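 GST-tagged NIK (0.2 nM) auto-phosphorylation was run with 25 microM ATP in pH 7.5 Tris buffer with MgCl2 for 1 h at 25 °C. It was detected by AlphaScreen with anti-phospho-IKK Ser176/180 antibody. IC50 came from sigmoidal fits of blank-subtracted % inhibition versus log concentration.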
# [2] = system: P-IKKα levels in L363 cells; assay: Effect of compounds on P-IKKα levels in L363 (NIK translocated multiple myeloma) cells; format: cell-based, human; settings: Homo sapiens, L-363, 2 h, 2 hr treatment, averaged values, read-out: Inhibition of pIKKα_L-363 (IC50 (nM))
# Description: Effect of Compounds on P-IKKα Levels in L363 (NIK Translocated Multiple Myeloma) Cells
# All compounds tested were dissolved in DMSO and further dilutions were made in culture medium. Final DMSO concentration was 1% (v/v) in cell assays. The human L363 cells (ATCC) were cultured in RPMI 1640 medium supplemented with GlutaMax and 10% fetal calf serum (PAA). Cells were routinely maintained at densities of 0.2×10^6 cells per ml—1×10^6 cells per ml at 37° C. in a humidified 5% CO2 atmosphere. Cells were passaged twice a week splitting back to obtain the low density. Cells were seeded in 96 well plates (Nunc 167008) at 2×10^6 per ml media in a volume of 75 μl per well plus 25 μl 1 μg/ml recombinant human B-cell activating factor (BAFF/BLyS/TNFSF13B). Seeded cells were incubated at 37° C. in a humidified 5% CO2 atmosphere for 24 hr. Drugs and/or solvents were added (20 μl) to a final volume of 120 μl. Following 2 hr treatment plates were removed from the incubator and cell lysis was achieved by the addition of 30 μl 5× lysis buffer followed by shaking on a plate shaker at 4° C. for 10 min. At the end of this incubation lysed cells were centrifuged at 800×g for 20 min at 4° C. and the lysate was assessed for P-IKKα levels by sandwich immuno-assay carried out in anti-rabbit antibody coated Mesoscale plates. Within an experiment, the results for each treatment were the mean of 2 replicate wells. For initial screening purposes, compounds were tested using an 8 point dilution curve (serial 1:3 dilutions). For each experiment, controls (containing MG132 and BAFF but no test drug) and a blank incubation (containing MG132 and BAFF and 10 μM ADS125117, a test concentration known to give full inhibition) were run in parallel. The blank incubation value was subtracted from all control and sample values. To determine the IC50 a sigmoidal curve was fitted to the plot of % inhibition of control P-IKKα levels versus Log10 compound concentration.
# [3] = system: JJN-3 cells; assay: Antiproliferative activity on JJN-3 (NIK translocated) multiple myeloma cells (CellTiter-Glo); format: cell-based, human; settings: JJN-3 (NIK translocated) cells, 96 hr treatment, averaged values, read-out: JJN-3 Proliferation inhibition (IC50 (nM))
# Description: (§1) Determination of Antiproliferative Activity on JJN-3 (NIK Translocated) and KMS12-BM (NIK WT) Multiple Myeloma Cells
# (§2) All compounds tested were dissolved in DMSO and further dilutions were made in culture medium. Final DMSO concentration was 0.3% (v/v) in cell proliferation assays. Viability was assessed using CellTiter-Glo cell viability assay kit (Promega). The human JJN-3 and KMS12-BM cells (DSMZ) were cultured in RPMI 1640 medium supplemented with 2 mM L-glutamine, and 10% fetal calf serum (PAA). Cells were routinely kept as suspension cells at 37° C. in a humidified 5% CO2 atmosphere. Cells were passaged at a seeding density of 0.2×10^6/ml twice a week. Cells were seeded in black tissue culture treated 96-well plates (Perkin Elmer). Densities used for plating ranged from 15000 (JJN3) to 20000 (KMS12BM) cells per well in a total volume of […]. Drugs and/or solvents were added (15 μl) to a final volume of 150 μl. Following 96 hr of treatment, plates were removed from the incubator and allowed to equilibrate to room temperature for approx 10 min. 75 μl CellTiter-Glo reagent was added to each well that was then covered (Perkin Elmer Topseal) and shaken on plate shaker for 10 min. Luminescence was measured on a HTS Topcount (Perkin Elmer). Within an experiment, the results for each treatment were the mean of 2 replicate wells. For initial screening purposes, compounds were tested using a 9 point dilution curve (serial 1:3 dilutions). For each experiment, controls (containing no drug) and a blank incubation (containing cells read at the time of compound addition) were run in parallel. The blank value was subtracted from all control and sample values. For each sample, the mean value for cell growth (in relative light units) was expressed as a percentage of the mean value for cell growth of the control.
# [4] = system: KMS12-BM cells; assay: Antiproliferative activity on KMS12-BM (NIK WT) multiple myeloma cells (CellTiter-Glo); format: cell-based, human; settings: 96 hr treatment, averaged values, read-out: KMS-12 Proliferation inhibition (IC50 (nM))
# Description: as §1, §2
IC50 [1],IC50 [2],"IC50 ([3]; Homo sapiens, JJN-3, 96 h)","IC50 ([4]; Homo sapiens, KMS-12-BM, 96 h)",IC50 [3],IC50 [4],Compound
2 nM,29 nM,457 nM,~1860 nM,,,CN1CCn2nc(Nc3nccc(-c4cc(C#N)c5c(c4)[C@@](C)(CO)CN5)n3)cc2C1=O [Compound 13b]
2 nM,6 nM,155 nM,3980 nM,,,C[C@]1(CO)CNc2c(C#N)cc(-c3ccnc(Nc4cnn5c4OCCC5)n3)cc21 [Compound 14b]
3.5 nM,11 nM,200 nM,~4470 nM,,,CN1CCn2ncc(Nc3nccc(-c4cc(C#N)c5c(c4)[C@@](C)(CO)CN5)n3)c2C1 [Compound 15b]
3 nM,3 nM,309 nM,> 10000 nM,,,CC(C)N1CCn2ncc(Nc3nccc(-c4cc(C#N)c5c(c4)[C@@](C)(CO)CN5)n3)c2C1=O [Compound 17b]
4.1 nM,16 nM,,,1 nM,9 nM,CN(C)C1COc2c(cc(Cl)cc2Nc2nccc(-c3cc(C#N)c4c(c3)[C@@](C)(CO)CN4)n2)C1 (stereo partly shown) [Compound 18]
6.2 nM,7 nM,288 nM,~5500 nM,,,CC(C)N1CCn2ncc(Nc3nccc(-c4cc(C#N)c5c(c4)[C@@](C)(CO)CN5)n3)c2C1 [Compound 18b]
11.7 nM,19 nM,316 nM,~5500 nM,,,COC[C@@H]1Cn2ncc(Nc3nccc(-c4cc(C#N)c5c(c4)[C@@](C)(CO)CN5)n3)c2O1 [Compound 19b]
3 nM,21 nM,81 nM,3890 nM,,,C[C@]1(CO)CNc2c(C#N)cc(-c3ccnc(Nc4cc5c(nc4CCC4CC4)CCOC5)n3)cc21 [Compound 21]
4.8 nM,~79 nM,162 nM,~550 nM,,,Cc1cc2c(cc1Nc1nccc(-c3cc(C#N)c4c(c3)[C@@](C)(CO)CN4)n1)CCN(C)CC2 [Compound 23]
3 nM,~74 nM,~214 nM,~288 nM,,,COc1cc2c(cc1Nc1nccc(-c3cc(C#N)c4c(c3)[C@@](C)(CO)CN4)n1)CCN(C)CC2 [Compound 24]
4.9 nM,28 nM,676 nM,~5890 nM,,,CC1(C)CCOc2c(Nc3nccc(-c4cc(C#N)c5c(c4)[C@@](C)(CO)CN5)n3)cnn21 [Compound 24b]
1.7 nM,10 nM,174 nM,> 10000 nM,,,COc1nc2c(cc1Nc1nccc(-c3cc(C#N)c4c(c3)[C@@](C)(CO)CN4)n1)COCC2 [Compound 25]
8.1 nM,7 nM,3020 nM,> 10000 nM,,,CC1(C)CCn2ncc(Nc3nccc(-c4cc(C#N)c5c(c4)[C@@](C)(CO)CN5)n3)c2O1 [Compound 25b]
9.5 nM,25 nM,1700 nM,~9550 nM,,,C[C@]1(CO)CNc2c(C#N)cc(-c3ccnc(Nc4cnn5c4C(=O)N(Cc4ccccc4)CC5)n3)cc21 [Compound 26b]
4.47 nM,13 nM,1580 nM,> 10000 nM,,,CC(C)CN1CCn2ncc(Nc3nccc(-c4cc(C#N)c5c(c4)[C@@](C)(CO)CN5)n3)c2C1=O [Compound 27b]
1.1 nM,14 nM,851 nM,> 10000 nM,,,Cc1nc2c(cc1Nc1nccc(-c3cc(C#N)c4c(c3)[C@@](C)(CO)CN4)n1)COCC2 [Compound 28]

IC50 [1],IC50 [2],"IC50 ([3]; Homo sapiens, JJN-3, 96 h)","IC50 ([4]; Homo sapiens, KMS-12-BM, 96 h)",IC50 [3],IC50 [4],Compound
17 nM,251 nM,3390 nM,> 10000 nM,,,CC(C)N1CCCn2ncc(Nc3nccc(-c4cc(C#N)c5c(c4)[C@@](C)(CO)CN5)n3)c2C1=O [Compound 28b]
3.4 nM,16 nM,~27 nM,51 nM,,,CN1CCc2ncc(Nc3nccc(-c4cc(C#N)c5c(c4)[C@@](C)(CO)CN5)n3)cc2C1 [Compound 29]
0.8 nM,2 nM,4 nM,10 nM,,,CN1CCc2cc(Nc3nccc(-c4cc(C#N)c5c(c4)[C@@](C)(CO)CN5)n3)ccc2C1 [Compound 30]
1.4 nM,2 nM,4 nM,~31 nM,,,CN1CCc2ccc(Nc3nccc(-c4cc(C#N)c5c(c4)[C@@](C)(CO)CN5)n3)cc2C1 [Compound 31]
1.7 nM,10 nM,195 nM,525 nM,,,COc1nc2c(cc1Nc1nccc(-c3cc(C#N)c4c(c3)[C@@](C)(CO)CN4)n1)CN(C)CC2 [Compound 32]
8.1 nM,17 nM,776 nM,> 10000 nM,,,COCCCc1nc2c(cc1Nc1nccc(-c3cc(C#N)c4c(c3)[C@@](C)(CO)CN4)n1)COCC2 [Compound 33]
10.5 nM,23 nM,1740 nM,> 10000 nM,,,C[C@]1(CO)CNc2c(C#N)cc(-c3ccnc(Nc4cc5c(nc4OCC4CC4)CCOC5)n3)cc21 [Compound 34]
11.8 nM,3 nM,138 nM,> 10000 nM,,,CC1(CO)CNc2c(C#N)cc(-c3ccnc(Nc4cc(Cl)cc5c4OCC5)n3)cc21 (stereo not shown) [Compound 41]
4.5 nM,35 nM,> 10000 nM,> 10000 nM,,,CNC(=O)c1cc(Nc2nccc(-c3cc(C#N)c4c(c3)[C@@](C)(CO)CN4)n2)c(=O)n2c1CCC2 [Compound 44]
13 nM,20 nM,778 nM,> 10000 nM,,,CC(C)Oc1nc2c(cc1Nc1nccc(-c3cc(C#N)c4c(c3)[C@@](C)(CO)CN4)n1)COCC2 [Compound 46]
1.6 nM,31 nM,~2340 nM,> 10000 nM,,,Cn1c2c(cc(Nc3nccc(-c4cc(C#N)c5c(c4)[C@@](C)(CO)CN5)n3)c1=O)COCC2 [Compound 48]
3.4 nM,56 nM,240 nM,3980 nM,,,CC(C)Oc1nc2c(cc1Nc1nccc(-c3cc(C#N)c4c(c3)[C@@](C)(CO)CN4)n1)CN(C)CC2 [Compound 50]
3.4 nM,4 nM,52 nM,~174 nM,,,C[C@]1(CO)CNc2c(C#N)cc(-c3ccnc(Nc4cnc5c(c4)CN(C4CC4)CC5)n3)cc21 [Compound 51]
7.8 nM,20 nM,200 nM,> 10000 nM,,,COc1nc2c(cc1Nc1nccc(-c3cc(C#N)c4c(c3)[C@@](C)(CO)CN4)n1)CN(C1CC1)CC2 [Compound 52]
12 nM,76 nM,3240 nM,~5750 nM,,,COc1nc2c(cc1Nc1nccc(-c3cc(C#N)c4c(c3)C(C)(CC(F)F)CN4)n1)CN(C)CC2 (stereo not shown) [Compound 56]
